Data set [1] concerns voltage-activated Na+ and K+ currents. The data set is described as follows: Whole-cell voltage-clamp, voltage-activated currents in rat DRG neurons. The data set is classed as cell-based. The conditions noted are these: 1 µM, depolarization pulse to +10 mV. The method, then: We also investigated the effect of RGM8-51 on native TRPM8 channels from rat DRG neurons. Whole-cell patch-clamp recordings from small size DRG neurons evidenced menthol (100 µM)-activated inward currents at a holding voltage of −80 mV (Figure 3A). As expected from results obtained in rTRPM8-expressing HEK293 cells, RGM8-51 (1 µM) inhibited menthol-activated currents.
Voltage-activated Na^+ and K^+ currents and TRPM8-mediated currents were recorded in DRG neurons isolated from 6-8 weeks old Sprague-Dawley rats, as previously described. Rats were sacrificed by cervical dislocation followed by decapitation and lumbar segments of the spinal column were removed and placed in a cold Ca^2+, Mg^2+-free Hank’s solution (Sigma-Aldrich, Madrid, Spain). The bone surrounding the spinal cord was removed and the right L4, L5 and L6 DRG were exposed and pulled out. […]
Data were sampled at 10 kHz (EPC10 amplifier with PatchMaster 2.53 software, HEKA Electronics, Lambrecht, Germany) and low-pass filtered at 3 kHz for analysis (PatchMaster 2.53 and GraphPad Prism 6.0, Graphpad Software, San Diego, CA, USA). […] Cell capacitance was measured and used to estimate the current density (J, pA/pF).

Data set [2] has as its system CACO-2 cell monolayers. Briefly: Caco-2 permeability. In kind it is in vitro ADME. Here is the method:
These studies were subcontracted to Eurofins-CEREP or Eurofins-PANLABS. Briefly, agonists and antagonist assays were performed in cell cultures overexpressing the corresponding channel (CHO: TRPV1 and TRPA1; HEK293: TRPV3 and ASIC3). In vitro pharmacology, cellular channel functional assays: the compound was prepared in assay buffer to the final concentration, 10 μM. The compound wells, reference agonist and background vehicle controls were prepared in DMSO at 0.3%. The reference agonist for each Ion Channel assayed was prepared in a similar manner to serve as the assay control. The reference agonist for each Ion Channel was included at Emax (the concentration where the reference agonist elicited a maximal response). The agonist assay was conducted on fluorimeter instruments where the test compound, vehicle controls, and reference agonist were added to the assay plate after a fluorescence baseline was established. The agonist assay was used to assess each compound’s ability to activate each Ion Channel assayed. For the antagonist assay, the compound was pre-incubated for five minutes at room temperature, and then challenged with the EC80 concentration of the reference agonist after establishment of a fluorescence baseline. Vehicle controls and EC80 concentration of reference agonist were added to appropriate wells. The antagonist assay was used to assess each compound’s ability to inhibit activation by the corresponding Ion Channel agonist. ASIC3 ionflux antagonist assay: all recordings were obtained from a holding potential of -60 mV. The compound addition sequence was as follows: one addition of pH5.5 buffer was added to establish the baseline response, the test concentration of compound was applied for 30 s, followed by the addition of pH5.5 of compound for 2 s. Binding assays were performed in CHO cell cultures overexpressing human CGRPR, CB2 and M2 receptors. RGM8-51 (10 μM) was tested, and reference compounds used as control agonists and antagonists are detailed in Table 2, footnote. Binding assay results are expressed as a percent of control specific binding. […] Aqueous solubility (μM) was determined by comparing the peak area of the principal peak in a calibration standard (200 μM) containing organic solvent (methanol/water, 60/40, v/v) with the peak area of the corresponding peak in a buffer sample. Partition coefficient: the total amount of compound was determined as the peak area of the principal peak in a calibration standard (100 μM) containing organic solvent (methanol/water, 60/40, v/v). The amount of compound in buffer was determined as the combined, volume-corrected, and weighted areas of the corresponding peaks in the aqueous phases of three organic-aqueous samples of different composition. An automated weighting system was used to ensure the preferred use of raw data from those samples with well quantifiable peak signals. The amount of compound in organic phase was calculated by subtraction. Subsequently, Log D was calculated as the Log10 of the amount of compound in the organic phase divided by the amount of compound in the aqueous phase. […] Permeability was measured in CACO-2 monolayers. Percentage of compounds in the receptors wells was measured using HPLC. […] In vitro metabolism was measured in human liver microsomes. […] The apparent intrinsic clearance (CLint, in μL/min/mg) was calculated from the half-life time.

On to `C[C@@H]1C(=O)N(C[C@H](Cc2ccccc2)N(Cc2ccccc2)Cc2ccccc2)[C@]1(Cc1ccccc1)C(=O)OC(C)(C)C` [RGM8-51, 4(S)-Benzyl-3S-methyl-4-(tert-butoxy)carbonyl-1-[(2′S-dibenzylamino-3′-phenyl)prop-1′-yl]-2-oxoazetidine], for which the “effect on voltage-activated Na+ and K+ currents” value in data set [1] is reported as “had no effect”. The “permeation of CACO-2 cell monolayers” value in data set [2] was “not able to permeate”. In data set [2] (CACO-2 cell monolayer), the “Permeability B-A (%)” value is given as 0%. In addition, the “Permeability A-B (%)” value in data set [2] (CACO-2 cell monolayer, percentage of compound in the acceptor cell) is recorded as 0%.

The values above are taken from publication PMC8910920 (International Journal of Molecular Sciences, 2022).
